# Measured values published in patent US11459324B2, “O-glycoprotein-2-acetamido-2-deoxy-3-D-glycopyranosidase inhibitors” (BIOGEN MA INC., priority 2018, dated 2022).
# Target: T1, Recombinant full length human OGA enzyme (Homo sapiens, UniProt O60502)
# T1 construct: Recombinant full length human OGA enzyme was purchased from Origene; purchased Origene
# T1 sequence (O60502 1-916): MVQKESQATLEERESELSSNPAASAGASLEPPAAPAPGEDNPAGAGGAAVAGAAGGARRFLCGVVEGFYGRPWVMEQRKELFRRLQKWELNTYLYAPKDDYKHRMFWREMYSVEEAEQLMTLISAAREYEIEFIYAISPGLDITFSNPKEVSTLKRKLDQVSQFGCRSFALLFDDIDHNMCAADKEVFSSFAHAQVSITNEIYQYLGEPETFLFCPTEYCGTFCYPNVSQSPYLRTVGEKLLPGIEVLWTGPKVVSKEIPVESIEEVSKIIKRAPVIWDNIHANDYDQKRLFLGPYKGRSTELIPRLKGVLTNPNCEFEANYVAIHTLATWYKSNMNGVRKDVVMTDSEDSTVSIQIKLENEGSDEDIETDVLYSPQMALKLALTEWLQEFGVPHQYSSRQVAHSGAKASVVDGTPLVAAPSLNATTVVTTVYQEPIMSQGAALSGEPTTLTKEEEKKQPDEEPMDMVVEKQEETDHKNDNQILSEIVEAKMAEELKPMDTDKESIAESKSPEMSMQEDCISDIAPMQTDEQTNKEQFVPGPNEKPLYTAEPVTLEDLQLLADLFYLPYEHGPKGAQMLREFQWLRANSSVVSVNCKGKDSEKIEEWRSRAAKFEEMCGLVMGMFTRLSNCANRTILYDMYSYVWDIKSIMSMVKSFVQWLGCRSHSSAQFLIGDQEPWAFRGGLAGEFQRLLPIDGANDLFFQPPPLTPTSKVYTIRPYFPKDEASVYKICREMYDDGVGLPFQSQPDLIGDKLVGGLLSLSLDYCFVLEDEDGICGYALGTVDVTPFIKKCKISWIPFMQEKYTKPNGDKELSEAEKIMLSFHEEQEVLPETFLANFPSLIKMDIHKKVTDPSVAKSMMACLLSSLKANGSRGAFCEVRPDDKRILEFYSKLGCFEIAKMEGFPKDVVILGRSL
# Assay: OGA Enzyme Inhibition Biochemical Assay
# Settings: 1 nM OGA, 100 μM 4-MUGlcNAc (Km), pH 6.4, 90 minutes at room temperature, 10-point dose-response from 20 μM
# Summary of the method: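 Full-length human OGA at 1 nM with 100 μM 4-MUGlcNAc (Km) in McIlvaine buffer pH 6.4 plus 0.01% BSA, 90 min at room temperature, then glycine pH 10 quench. Fluorescence read at Ex 355/Em 460 nm. 10-point, 4-fold dose-response from 20 μM, 4-parameter variable-slope fit.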
row,SMILES,IC50
1,"CC(=O)Nc1ncc(CN2CCCC(Cn3cc(C(C)C)cn3)C2)s1 (stereo not drawn) [Example 4-7, N-(5-((3-((4-isopropyl-1H-pyrazol-1-yl)methyl)piperidin-1-yl)methyl)thiazol-2-yl)acetamide]",380 nM
2,"CC(=O)Nc1ncc(CN2CCCC(Cc3ncccc3C(F)(F)F)C2)s1 (stereo not drawn) [Example 1-46, N-(5-((3-((3-(trifluoromethyl)pyridin-2-yl)methyl)piperidin-1-yl)methyl)thiazol-2-yl)acetamide]",25 nM
3,"CC(=O)Nc1ncc(CN2C[C@H](Cc3ncc(F)cn3)CC[C@@H]2C)s1 (single isomer, unassigned) [Example 2-25]",5 nM
4,"CC(=O)Nc1ncc(CN2CC(Cc3ncc(F)cn3)CC(F)(F)C2)s1 (stereo not drawn) [Example 2-13, N-(5-((3,3-difluoro-5-((5-fluoropyrimidin-2-yl)methyl)piperidin-1-yl)methyl)thiazol-2-yl)acetamide]",450 nM
5,"CC(=O)Nc1ncc(CN2CCC[C@H](Cc3ncc(F)c(C)n3)C2)s1 [Example 2-7, (R)-N-(5-((3-((5-fluoro-4-methylpyrimidin-2-yl)methyl)piperidin-1-yl)methyl)thiazol-2-yl)acetamide]",3 nM
6,"CC(=O)Nc1ncc(CN2CCCC(Cn3cc(C(F)(F)F)cn3)C2)s1 (stereo not drawn) [Example 4-3, N-(5-((3-((4-(trifluoromethyl)-1H-pyrazol-1-yl)methyl)piperidin-1-yl)methyl)thiazol-2-yl)acetamide]",960 nM
7,"CC(=O)Nc1ncc(CN2CCCC(Cc3nnc4ccccn34)C2)s1 (stereo not drawn) [Example 4-23, N-(5-((3-([1,2,4]triazolo[4,3-a]pyridin-3-ylmethyl)piperidin-1-yl)methyl)thiazol-2-yl)acetamide]",27 nM
8,"COc1ccc(CC2CCCN(Cc3cnc(NC(C)=O)s3)C2)cc1 (stereo not drawn) [Example 1-4, N-(5-((3-(4-methoxybenzyl)piperidin-1-yl)methyl)thiazol-2-yl)acetamide]",8 nM
9,"CC(=O)Nc1ncc(CN2CCC(Cc3ncc(F)cn3)C2C)s1 (stereo not drawn) [Example 2-42, N-(5-((3-((5-fluoropyrimidin-2-yl)methyl)-2-methylpyrrolidin-1-yl)methyl)thiazol-2-yl)acetamide]",250 nM
10,"CC(=O)Nc1ncc(CN2CCCC(Cc3csc(C)n3)C2)s1 (stereo not drawn) [Example 1-36, N-(5-((3-((2-methylthiazol-4-yl)methyl)piperidin-1-yl)methyl)thiazol-2-yl)acetamide]",30 nM
11,"CC(=O)Nc1ncc(CN2CCCC(Cc3ccc(F)cc3)C2)s1 (stereo not drawn) [Example 1-1, N-(5-((3-(4-fluorobenzyl)piperidin-1-yl)methyl)thiazol-2-yl)acetamide]",60 nM
12,"CC(=O)Nc1ncc(CN2C[C@@H](Cc3ncc(F)cn3)[C@H](C)C2)s1 (relative stereo) [Example 2-22, N-(5-(((trans)-3-((5-fluoropyrimidin-2-yl)methyl)-4-methylpyrrolidin-1-yl)methyl)thiazol-2-yl)acetamide]",36 nM
13,"CC(=O)Nc1ncc(CN2CC[C@H](Cc3ncc(F)cn3)C2)s1 (single isomer, unassigned) [Example 2-1]",7 nM
14,"CC(=O)Nc1ncc(CN2CC[C@H](C)[C@H](Cc3ncc(F)cn3)C2)s1 (single isomer, unassigned) [Example 2-39]",1 nM
15,"COc1cc(C[C@H]2CCCN(Cc3sc(NC(C)=O)nc3F)C2)ccn1 [Example 3-19, (R)-N-(4-fluoro-5-((3-((2-methoxypyridin-4-yl)methyl)piperidin-1-yl)methyl)thiazol-2-yl)acetamide]",< 1 nM
16,"CC(=O)Nc1nc(F)c(CN2CC[C@H](Cc3cc(C)nc(C)c3)C2)s1 [Example 3-24, (S)—N-(5-((3-((2,6-dimethylpyridin-4-yl)methyl)pyrrolidin-1-yl)methyl)-4-fluorothiazol-2-yl)acetamide]",< 1 nM
17,"CC(=O)Nc1ncc(CN2C[C@H](Cc3ncc(F)cn3)C[C@@H]2C(F)(F)F)s1 (single isomer, unassigned) [Example 2-47]",1200 nM
18,"CC(=O)Nc1nc(F)c(CN2C[C@@H](Cc3ncc(F)cn3)C[C@H]2C)s1 [Example 3-42, N-(4-fluoro-5-(((2R,4R)-4-((5-fluoropyrimidin-2-yl)methyl)-2-methylpyrrolidin-1-yl)methyl)thiazol-2-yl)acetamide]",< 1 nM

row,SMILES,IC50
1,"CC(=O)Nc1ncc(CN2CCCC(Cc3cccnc3)C2)s1 (stereo not drawn) [Example 1-27, N-(5-((3-(pyridin-3-ylmethyl)piperidin-1-yl)methyl)thiazol-2-yl)acetamide]",11 nM
2,"CC(=O)Nc1nc(F)c(CN2CC[C@@H](Cc3ncc(F)cn3)C2)s1 [Example 3-36, (S)—N-(4-fluoro-5-((3-((5-fluoropyrimidin-2-yl)methyl)pyrrolidin-1-yl)methyl)thiazol-2-yl)acetamide]",77 nM
3,"CC(=O)Nc1ncc(CN2CCCC(Cc3ccncc3)C2)s1 (stereo not drawn) [Example 1-40, N-(5-((3-(pyridin-4-ylmethyl)piperidin-1-yl)methyl)thiazol-2-yl)acetamide]",4 nM
4,CC(=O)Nc1ncc(CN2CC(Cc3ncc(F)cn3)CC[C@H]2C(F)(F)F)s1 (stereo partly drawn) [Example 2-49],> 20000 nM
5,"CC(=O)Nc1ncc(CN2CC(Cc3ncc(F)cn3)C(F)(F)C2)s1 (stereo not drawn) [Example 3-3, N-(5-((3,3-difluoro-4-((5-fluoropyrimidin-2-yl)methyl)pyrrolidin-1-yl)methyl)thiazol-2-yl)acetamide]",920 nM
6,"CC(=O)Nc1ncc(CN2C[C@H](Cc3ncc(F)cn3)C[C@H]2C)s1 (single isomer, unassigned) [Example 2-20]",1 nM
7,"CC(=O)Nc1ncc(CN2CCCC(Cn3cc(F)cn3)C2)s1 (stereo not drawn) [Example 4-1, N-(5-((3-((4-fluoro-1H-pyrazol-1-yl)methyl)piperidin-1-yl)methyl)thiazol-2-yl)acetamide]",500 nM
8,"CC(=O)Nc1ncc(CN2CCC(Cc3ccc(F)cc3)C2)s1 (stereo not drawn) [Example 1-17, N-(5-((3-(4-fluorobenzyl)pyrrolidin-1-yl)methyl)thiazol-2-yl)acetamide]",180 nM
9,"CC(=O)Nc1ncc(CN2CCC[C@H]([C@H](C)c3ncc(F)cn3)C2)s1 (single isomer, unassigned) [Example 2-32]",330 nM
10,"CC(=O)Nc1ncc(CN2C[C@H](Cc3ncc(F)cn3)CC[C@H]2C)s1 (single isomer, unassigned) [Example 2-27]",< 1 nM
11,"CC(=O)Nc1ncc(CN2CCCC(Cc3cncc(F)c3)C2)s1 (stereo not drawn) [Example 1-12, N-(5-((3-((5-fluoropyridin-3-yl)methyl)piperidin-1-yl)methyl)thiazol-2-yl)acetamide]",7 nM
12,"CC(=O)Nc1ncc(CN2CCC(C(C)c3ncc(F)cn3)C2)s1 (stereo not drawn) [Example 2-36, N-(5-((3-(1-(5-fluoropyrimidin-2-yl)ethyl)pyrrolidin-1-yl)methyl)thiazol-2-yl)acetamide]",1 nM
13,"CC(=O)Nc1nc(F)c(CN2CC[C@H](Cc3ccnc(C)c3)C2)s1 [Example 3-33, (S)—N-(4-fluoro-5-((3-((2-methylpyridin-4-yl)methyl)pyrrolidin-1-yl)methyl)thiazol-2-yl)acetamide]",4.8 nM
14,"CC(=O)Nc1nc(F)c(CN2CCCC(Cc3noc(C)n3)C2)s1 (stereo not drawn) [Example 4-18, N-(4-fluoro-5-((3-((5-methyl-1,2,4-oxadiazol-3-yl)methyl)piperidin-1-yl)methyl)thiazol-2-yl)acetamide]",6.6 nM
15,"CC(=O)N(C)c1ncc(CN2CCC[C@H](Cc3ncc(F)cn3)C2)s1 [Example 3-16, N-[5-[[(3R)-3-[(5-fluoropyrimidin-2-yl)methyl]-1-piperidyl]methyl]thiazol-2-yl]-N-methyl-acetamide]",19 nM
16,"CC(=O)Nc1nc(F)c(CN2CCC[C@H](Cc3ccnc(C)c3)C2)s1 [Example 3-18, (R)-N-(4-fluoro-5-((3-((2-methylpyridin-4-yl)methyl)piperidin-1-yl)methyl)thiazol-2-yl)acetamide]",< 1 nM
17,"CC(=O)Nc1ncc(CN2C[C@@H](Cc3ncc(F)cn3)C[C@@H]2C(F)(F)F)s1 (single isomer, unassigned) [Example 2-46]",3900 nM
18,"CC(=O)Nc1nc(F)c(CN2C[C@@H](Cc3ncc(F)cn3)CC[C@@H]2C)s1 [Example 2-53, N-(4-fluoro-5-(((2S,5R)-5-((5-fluoropyrimidin-2-yl)methyl)-2-methylpiperidin-1-yl)methyl)thiazol-2-yl)acetamide]",9.2 nM
